In US20230346773A1, “USE OF PCSK9 INHIBITOR IN PREPARATION OF PRODUCT FOR TREATING MULTIPLE DISEASES” (priority 2020, published 2023):
Marks after values point to notes of the source that are not given here.

How the values were obtained:
rabbit ear acne model = assay: Rabbit ear acne model induced by 2% coal tar; assay type: in vivo, New Zealand rabbits; details: n = 10
Description: The inner side of the right ear of the rabbits was taken as the observation area, the left ear of all rabbits was used as the self-negative control, and 95% alcohol was applied. The inner side of the right ear of the model group and the treatment group were smeared with 2% coal tar (Alfa Aesar China Company, 2% coal tar solution made with 95% alcohol), and evenly applied to the opening of the ear canal on the inner side of the rabbit ear with a sterile cotton swab in a range of about 2 cm×2 cm, once a day, 0.5 mL each time. Then the previous application was wiped with warm water. […] 18 hours after the last coating, the samples were sacrificed, fixed in 10% formaldehyde, embedded in paraffin, and stained with HE for histopathological analysis.
Histological grading standard of the acne model: […], according to histology. Grade 0 means that there are only loose keratinized cells in the infundibulum, without acne forming the “1”; grade 1: the skin on the surface of the rabbit ear is red, or a small amount of dense keratinized material is seen in the infundibulum of the hair follicle, and the infundibulum is not expanded “+”; grade 2: moderately dense keratinized material is seen in the infundibulum of the hair follicle, and it extends to the sebaceous glands, with the proliferation of sebaceous gland ducts, the infundibulum expands by “2+”; grade 3: extensive keratinized material in the hair follicle. Tight keratin embolism in hair follicles causes severe expansion of hair follicles, obvious hyperplasia of sebaceous duct epithelium, skin bulges and scars, and some sebaceous glands degenerate into “3+”.
Histopathological changes were observed under a microscope, and the thickness of 5 different epidermises on a slice was measured with the Biomias99 image analysis system, and the average value was calculated; the area of two hair follicles with the same position and the most complete structure and the diameter of four sebaceous glands were detected, and the average value of each was calculated, and then the data of the left and right external auditory canals of each group were subtracted to obtain the difference in the thickness of the epidermis, the difference in hair follicle area and the diameter of the sebaceous gland in the left and right ears of each rabbit.

[1] = tested on: hair follicles / hair growth in depilated C57BL/6 mice; assay: Hair growth in C57BL/6 mice after rosin/paraffin depilation; assay type: in vivo
Procedure: SPF grade C57BL/6 mice were selected and numbered according to their weight. They were randomly divided into compound group 1 (skin applied with 2% R-IMPP solution), compound group 2 (skin applied with 2% PF 06446846 solution), and compound group 3 (skin applied with 2% SBC-115076 solution), compound group 4 (skin applied with 2% SBC-110736 solution), monoclonal antibody group 1 (PCSK9subcutaneous injection monoclonal antibody ab81041, 5 mg/kg·d), monoclonal antibody group 2 (Subcutaneous injection of Evolocumab, 5 mg/kg·d), monoclonal antibody group 3 (subcutaneous injection of Alirocumab, 5 mg/kg·d), PCSK9 RNA interference group-1 (skin applied with 2% PCSK9 small interfering RNA-1 solution), PCSK9 RNA interference Group-2 (skin applied with 2% PCSK9 small interfering RNA-2 solution), PCSK9 RNA interference group-3 (skin applied with 2% PCSK9 small interfering RNA-3 solution), polypeptide group (subcutaneous injection of Abcam company ab32727, 3 mg/kg·d), positive control group (skin applied with 2% minoxidil solution), negative control group (skin applied with 60% ethanol), and model control group (skin applied with 60% ethanol), 10 mice in each group, half male and half female. After the mice were anesthetized with ether, they were coated on the back with a mixture of rosin and paraffin (1:1) after hot melting, and then peeled off after it solidified and hardened. The back of the mouse was cleaned to be hairless and without injuries. The depilation area was about 3 cm×4 cm. From the 2nd day after depilation, the corresponding drugs were applied to the hair removal area, twice a day, 0.5 mL per animal each time, and subcutaneously injected once a week.
From the second day after application, observe the daily color change of the skin on the back of the mice to determine the growth state of the hair follicles and visually observe the hair growth in the depilation area, and score the new hair growth in the depilation area once a day. Five mice in each group were reserved for 40 days of visual observation, and the growth of back hair was recorded.
On the 17th day, five mice in each group were sacrificed by cervical dislocation. The samples were taken from the same part of the back parallel to the spine, fixed with 10% formaldehyde, dehydrated, embedded in paraffin, sectioned, stained with HE, and sealed with neutral gum. Then the histology of hair follicles was observed under light microscope, and morphological staging of hair follicles was performed. According to the international hair cycle scoring method, the hair follicles were scored as follows: 100 points for growth stage VI, 200 points for early regression, 300 points for middle regression, and 400 points for late regression. 50 hair follicles were randomly selected from each mouse, the cycle of the hair follicles in each group was determined, and the average hair cycle score and the percentage of hair follicles in the growth phase VI, early regression, middle regression, and late regression were calculated.

VEGF protein = assay: Bleomycin pulmonary fibrosis rat model: VEGF protein in lung tissue by ELISA; assay type: in vivo, Wistar rats; details: n = 6, x ± s
Procedure: Rats were numbered according to their body weight and divided into groups according to their body weight by random arrangement table method, and divided into small molecule compound treatment group (tail vein injection of PCSK9 small molecule compound inhibitor, 3 mg/kg·d), siPcsk9 treatment group (Tail vein injection of PCSK9 small interfering RNA, 3 mg/kg·d), monoclonal antibody treatment group (tail vein injection of PCSK9 monoclonal antibody, 3 mg/kg·d), peptide treatment group (tail vein injection of PCSK9 polypeptide inhibitor, 3 mg/kg·d), model group (injection of physiological saline into tail vein, 3 mg/kg·d), and blank control group (injection of physiological saline into tail vein, 3 mg/kg·d), 12 animals in each group, half male and half female. Rats in each group were anesthetized by intraperitoneal injection of 2% sodium pentobarbital ([…]), fixed on the operating table, and injected into the neck trachea. The control group was injected with normal saline (1.25 ml/kg), and the model group and each treatment group were injected with 5 U/mL bleomycin solution (5 mg/kg). […]
Peripheral venous blood was collected from the tail vein of animals in each group after modeling and 14 days after treatment, and the levels of superoxide dismutase (SOD) and catalase (CAT) in peripheral blood were detected. […]

[2] = hair removal area on the back of mice, after hair removal

COc1ccc(CCC(=O)N(c2nccc3ccccc23)[C@@H]2CCCNC2)cc1 [Compound group 1, R-IMPP]
Skin thickness (rabbit ear acne model; rabbit ear epidermis): 0.2433 ± 0.0196 mm
Hair follicle area (rabbit ear acne model; rabbit ear): 0.2726 ± 0.0842* mm^2
Sebaceous gland diameter (rabbit ear acne model; rabbit ear): 0.0512 ± 0.0327 mm
Histological grading of acne: number of animals graded − (rabbit ear acne model; right ear, grade 0: only loose keratinized cells in the infundibulum, without acne): 6
Histological grading of acne: number of animals graded 1+ (rabbit ear acne model; right ear, grade 1: small amount of dense keratinized material, infundibulum not expanded): 3
Histological grading of acne: number of animals graded 2+ (rabbit ear acne model; right ear, grade 2: moderately dense keratinized material extending to sebaceous glands, infundibulum expands): 1
Histological grading of acne: number of animals graded 3+ (rabbit ear acne model; right ear, grade 3: extensive keratinized material, severe expansion of hair follicles): 0
Time from hair growth to the same length as the hair in the non-experimental area ([1]; back hair removal area of mice): 11.14* days
Time to grow new hair ([1]; back hair removal area of mice): 6.92* days
Time to match the length of hair in the non-experimental area ([1]; back hair removal area of mice): 18.06* days
Black skin duration ([1]; hair removal area on the back of mice): 14.29* days
Skin black-turning time [1, 2]: 5.96* days
Skin grayish-black-turning time [1, 2]: 20.25* days
VEGF protein, 14 days after modeling (VEGF protein; after modeling (before the 14 days of treatment)): 38.47 ± 3.23 pg/mL
VEGF protein, 14 days after treatment (VEGF protein; tail vein 3 mg/kg·d once a day for 14 days): 57.61 ± 3.86 pg/mL
